The text below walks through data of BindingDB's records for patent US10556885 (Samumed, 2020).

Test [1] deals with Dual specificity tyrosine-phosphorylation-regulated kinase 1A (Homo sapiens, UniProt Q13627). As to the kind of experiment: Z-lyte Assay. Here is the method:
All reactions were performed in duplicate.

Test [2] concerns the target Glycogen synthase kinase-3 beta (Homo sapiens, UniProt P49841). As to the kind of experiment: Z-lyte Assay.

pEC50: −log10 of the molar value.

Sequence of Glycogen synthase kinase-3 beta (P49841 whole entry): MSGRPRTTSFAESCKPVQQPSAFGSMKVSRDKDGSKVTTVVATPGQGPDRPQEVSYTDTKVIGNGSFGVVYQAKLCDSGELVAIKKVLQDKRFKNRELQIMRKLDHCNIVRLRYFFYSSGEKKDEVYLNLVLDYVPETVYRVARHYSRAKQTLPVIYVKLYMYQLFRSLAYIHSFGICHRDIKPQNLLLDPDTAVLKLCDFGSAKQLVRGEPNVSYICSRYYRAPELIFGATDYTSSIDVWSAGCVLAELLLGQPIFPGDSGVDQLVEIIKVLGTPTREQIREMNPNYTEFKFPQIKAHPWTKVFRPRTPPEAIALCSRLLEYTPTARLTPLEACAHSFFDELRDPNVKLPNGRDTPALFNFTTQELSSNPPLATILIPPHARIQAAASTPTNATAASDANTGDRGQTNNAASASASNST

What is called pEC50 is the negative decadic logarithm of the EC50, by convention in mol/L. Read a high pEC50 as a small EC50. Take `Cc1ncc(-c2ccc3cnc(NC(=O)C4CCC(F)(F)CC4)cc3c2)[nH]1` [US10556885, Compound 121]: the results for the negative-log EC50 (pEC50) in test [1] and in test [2] were 8.47 and 7.28, respectively.
